Tests used:
[1] = system: SNU-398 xenografts; assay: HCC mouse xenograft, anti-tumor efficacy; assay type: in vivo; details: for tumor shrinkage: 15 days
Method: (§1) Animals were maintained, and all animal work were performed following the protocols approved by the Institutional Animal Care and Use Committee. The SNU-398 cell line was cultured as described above in ‘Cell Culture’. To establish the SNU-398 xenografts, NOD.Cg−Prkdc^sc^i^dIl2rg^tm^1^Wjl/Sz (NSG) female mice (6-8 weeks) were anesthetized using 2% isoflurane USP, and 0.5×10^6 SNU-398 cells in 200 μL of 1:1 RPMI:Matrigel were subcutaneously injected to the mouse flanks. When tumors were palpable, mice were randomized to receive either QE treatment or vehicle containing 5% DMSO, 12.5% Ethanol, and 12.5% Cremophor EL in 70% 1× PBS. Freshly prepared vehicle or QE-18-WG07 was administered by intraperitoneal (IP) injection, once daily (qd) at 10 mg/kg in the pilot study and 5, 15, and 45 mg/kg for dose-expansion studies. Before each drug injection, mouse weight and tumor volume were monitored. Mice were euthanized once tumors reached more than 1.5 cm in diameter. The tumors were harvested, imaged and snap-frozen for storage at −80° C. until later use.

[2] = target: T1, IKZF1 (Homo sapiens, UniProt Q13422); assay: Immunoblot of IKZF1 in SNU-398 HCC cells; assay type: cell-based; details: SNU-398 cells
T1 construct: with immunoblots in SNU-398 HCC cells; endogenous in cells; host or cells: SNU-398 HCC cells
T1 sequence (Q13422 whole entry): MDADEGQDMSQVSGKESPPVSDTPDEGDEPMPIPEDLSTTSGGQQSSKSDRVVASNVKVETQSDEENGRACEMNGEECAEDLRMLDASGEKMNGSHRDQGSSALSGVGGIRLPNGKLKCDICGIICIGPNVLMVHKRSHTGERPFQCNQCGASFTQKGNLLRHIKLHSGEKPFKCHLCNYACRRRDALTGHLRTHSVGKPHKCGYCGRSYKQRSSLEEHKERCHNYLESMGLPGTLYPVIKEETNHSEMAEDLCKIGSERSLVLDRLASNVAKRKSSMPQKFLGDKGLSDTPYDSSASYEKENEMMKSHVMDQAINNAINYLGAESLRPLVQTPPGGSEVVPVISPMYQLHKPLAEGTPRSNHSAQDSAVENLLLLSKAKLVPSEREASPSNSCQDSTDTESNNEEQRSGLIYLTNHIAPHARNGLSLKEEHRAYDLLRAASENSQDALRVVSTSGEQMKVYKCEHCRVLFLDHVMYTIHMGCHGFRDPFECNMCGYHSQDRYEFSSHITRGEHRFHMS
Method: RIPA buffer containing freshly added protease inhibitors (2 mM PMSF) and protease inhibitor cocktail was used for cell lysis. The lysed cells were incubated for 10 min on ice and subsequently centrifuged at 4° C. for 10 min at 14,000 rpm. The protein concentrations of cell lysates were assessed using Bradford Assay as per manufacturer's instructions. The samples were denatured using 4× Sample buffer at 95° C. for 5 min. The samples were size resolved using polyacrylamide gel (8%) and Mini-PROTEAN Tetra Cell module. The size-resolved proteins were transferred onto PVDF via electroblotting using Mini Trans-Blot® module. The membrane was blocked using 5% BSA in TBST. The membrane was incubated with appropriate primary antibody (overnight) and secondary antibody (1 h). Immobilon Crescendo Western HRP substrate was used for signal development and images were acquired using darkroom development techniques.

[3] = HCC mouse xenograft, tolerability (body, spleen, liver weight); assay type: in vivo
Method: as §1

## COc1ccccc1NC(=O)Nc1ccc([N+](=O)[O-])cc1O [QE-18-WG07]
[1]; 5 mg/kg IP daily
  tumor shrinkage: 40%
[1]; 10 mg/kg IP daily, 10 days
  reduction of tumor sizes vs vehicle control: 64%
[1]; 15 mg/kg IP daily
  tumor shrinkage: 60%
[1]; 45 mg/kg IP daily
  tumor shrinkage: 70%
[2]
  degradation of IKZF1: did not degrade
[3]; 10 mg/kg daily, 10 days
  tolerability (animal weight preservation, normal spleen weight): well tolerated
[3]; 10 mg/kg q.d., 10 days
  weight loss in mice compared to vehicle: did not induce significant weight loss
[3]; 45 mg/kg daily, 2 weeks
  tolerability (negligible weight loss, normal spleen and liver weight): well tolerated
[3]; 5, 15 and 45 mg/kg q.d., 15 days
  weight loss in mice: did not induce significant weight loss

From patent US20240335429A1, “MOLECULAR GLUE AND SALL4 DEGRADER” (National University of Singapore, priority 2021, published 2024)
